Source: US8044069B2, “Compounds as calcium channel blockers” (Abbott Laboratories, priority 2008, dated 2011)
pIC50: −log10 of the molar value.

molecular target: human Cav2.2 (Homo sapiens, UniProt Q00975); assay: Assessment of calcium channel activity using FLIPR (Ca2+ influx in IMR32 cells); format: cell-based; settings: IMR32 cells endogenously expressing human Cav2.2; 60 minute pre-incubation; 2 μM nifedipine; depolarized with 80 mM KCl, 5 mM CaCl2
Method: (i) In Vitro Methods—Assessment of Calcium Channel Activity Using FLIPR:
The IMR32 cells were maintained in MEM media containing 10% (v/v) FBS, 1% (v/v) antibiotic/antimitotic, 1% (v/v) sodium pyruvate and 1% (v/v) MEM NEAA. Following dissociation in 0.05% (v/v) trypsin/EDTA, cells were seeded into black 1×96-well plates (Corning Cellbind) at a density of 1-1.2×10^5 cells/well and incubated in the maintenance media above for 48 hours at 37° C. […] After dye loading and a subsequent 60 minute pre-incubation with compounds (full log dilutions from 10 μM to 0.1 nM) in the presence of 1.3 mM CaCl2 and 2 μM nifedipine to block endogenous L-type channels, the external Ca^2+ concentration was increased to 5 mM CaCl2 and the cells concomitantly depolarized with 80 mM KCl to assay channel activity. To determine the IC50 values, the percent inhibition of the compound at each concentration was determined relative to the activity in the absence of inhibitor, and data was fitted using non-linear regression sigmoidal dose response curve analysis with GraphPad Prism®.

human Cav2.2, sequence (Q00975 whole entry): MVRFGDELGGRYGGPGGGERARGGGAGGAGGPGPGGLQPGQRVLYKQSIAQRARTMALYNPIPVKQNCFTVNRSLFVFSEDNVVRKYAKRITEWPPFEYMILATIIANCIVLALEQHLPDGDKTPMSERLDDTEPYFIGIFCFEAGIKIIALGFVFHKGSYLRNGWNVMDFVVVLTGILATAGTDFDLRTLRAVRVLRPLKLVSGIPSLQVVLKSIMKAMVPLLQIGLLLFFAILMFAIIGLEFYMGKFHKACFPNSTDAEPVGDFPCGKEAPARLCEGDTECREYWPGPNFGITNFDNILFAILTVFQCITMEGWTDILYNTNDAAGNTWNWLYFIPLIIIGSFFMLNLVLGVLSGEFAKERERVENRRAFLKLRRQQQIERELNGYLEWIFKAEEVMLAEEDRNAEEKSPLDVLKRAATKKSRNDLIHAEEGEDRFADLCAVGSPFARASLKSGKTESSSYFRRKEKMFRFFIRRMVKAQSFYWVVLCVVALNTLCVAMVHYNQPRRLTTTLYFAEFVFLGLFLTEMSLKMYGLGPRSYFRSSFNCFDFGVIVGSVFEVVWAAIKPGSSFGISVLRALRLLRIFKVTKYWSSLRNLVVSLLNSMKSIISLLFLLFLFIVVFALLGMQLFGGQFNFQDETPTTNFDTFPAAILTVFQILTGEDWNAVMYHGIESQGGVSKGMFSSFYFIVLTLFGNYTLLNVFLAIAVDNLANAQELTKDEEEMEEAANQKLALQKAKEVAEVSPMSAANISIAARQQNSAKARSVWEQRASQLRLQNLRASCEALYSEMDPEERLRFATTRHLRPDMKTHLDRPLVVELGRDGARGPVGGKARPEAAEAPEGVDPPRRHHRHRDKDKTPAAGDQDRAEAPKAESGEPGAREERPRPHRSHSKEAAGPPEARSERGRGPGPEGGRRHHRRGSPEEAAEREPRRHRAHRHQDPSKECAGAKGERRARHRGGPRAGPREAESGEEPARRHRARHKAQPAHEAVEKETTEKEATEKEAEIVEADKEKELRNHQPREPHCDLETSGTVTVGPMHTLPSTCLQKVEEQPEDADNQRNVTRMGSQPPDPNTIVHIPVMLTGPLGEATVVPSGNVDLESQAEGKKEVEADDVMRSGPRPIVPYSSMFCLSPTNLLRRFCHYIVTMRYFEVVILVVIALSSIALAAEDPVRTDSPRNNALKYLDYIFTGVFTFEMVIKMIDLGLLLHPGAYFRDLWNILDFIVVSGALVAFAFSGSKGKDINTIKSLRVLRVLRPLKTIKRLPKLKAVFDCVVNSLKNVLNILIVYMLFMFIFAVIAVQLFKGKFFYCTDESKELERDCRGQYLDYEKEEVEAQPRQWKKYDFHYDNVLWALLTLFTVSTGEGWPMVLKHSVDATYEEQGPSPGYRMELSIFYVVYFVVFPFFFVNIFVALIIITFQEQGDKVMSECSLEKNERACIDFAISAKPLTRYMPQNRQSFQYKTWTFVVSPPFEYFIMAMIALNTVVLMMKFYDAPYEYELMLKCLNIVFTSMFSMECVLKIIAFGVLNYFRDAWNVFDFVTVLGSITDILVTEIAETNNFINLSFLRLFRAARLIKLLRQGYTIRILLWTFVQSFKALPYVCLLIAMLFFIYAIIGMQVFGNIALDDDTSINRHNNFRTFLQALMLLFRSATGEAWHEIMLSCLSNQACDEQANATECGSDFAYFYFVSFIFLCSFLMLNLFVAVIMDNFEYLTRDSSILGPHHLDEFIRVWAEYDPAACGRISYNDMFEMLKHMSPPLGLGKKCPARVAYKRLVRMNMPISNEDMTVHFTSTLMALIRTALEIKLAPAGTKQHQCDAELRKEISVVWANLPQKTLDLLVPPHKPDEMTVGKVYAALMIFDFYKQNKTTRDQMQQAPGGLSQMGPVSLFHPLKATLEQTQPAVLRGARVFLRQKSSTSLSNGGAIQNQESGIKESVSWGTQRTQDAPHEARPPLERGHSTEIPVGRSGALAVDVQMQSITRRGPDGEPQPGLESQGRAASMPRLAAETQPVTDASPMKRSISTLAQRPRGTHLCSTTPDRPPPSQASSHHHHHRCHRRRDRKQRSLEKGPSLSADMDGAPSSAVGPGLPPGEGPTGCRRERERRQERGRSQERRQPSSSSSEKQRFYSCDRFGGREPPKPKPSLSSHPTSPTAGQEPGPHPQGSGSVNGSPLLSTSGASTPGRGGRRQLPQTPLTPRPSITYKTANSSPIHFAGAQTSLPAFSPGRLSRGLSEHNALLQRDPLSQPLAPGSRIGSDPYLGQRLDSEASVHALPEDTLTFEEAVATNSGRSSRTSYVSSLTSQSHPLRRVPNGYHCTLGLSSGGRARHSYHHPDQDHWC
human Cav2.2, sequence (P54289 25-951 partner limits assumed): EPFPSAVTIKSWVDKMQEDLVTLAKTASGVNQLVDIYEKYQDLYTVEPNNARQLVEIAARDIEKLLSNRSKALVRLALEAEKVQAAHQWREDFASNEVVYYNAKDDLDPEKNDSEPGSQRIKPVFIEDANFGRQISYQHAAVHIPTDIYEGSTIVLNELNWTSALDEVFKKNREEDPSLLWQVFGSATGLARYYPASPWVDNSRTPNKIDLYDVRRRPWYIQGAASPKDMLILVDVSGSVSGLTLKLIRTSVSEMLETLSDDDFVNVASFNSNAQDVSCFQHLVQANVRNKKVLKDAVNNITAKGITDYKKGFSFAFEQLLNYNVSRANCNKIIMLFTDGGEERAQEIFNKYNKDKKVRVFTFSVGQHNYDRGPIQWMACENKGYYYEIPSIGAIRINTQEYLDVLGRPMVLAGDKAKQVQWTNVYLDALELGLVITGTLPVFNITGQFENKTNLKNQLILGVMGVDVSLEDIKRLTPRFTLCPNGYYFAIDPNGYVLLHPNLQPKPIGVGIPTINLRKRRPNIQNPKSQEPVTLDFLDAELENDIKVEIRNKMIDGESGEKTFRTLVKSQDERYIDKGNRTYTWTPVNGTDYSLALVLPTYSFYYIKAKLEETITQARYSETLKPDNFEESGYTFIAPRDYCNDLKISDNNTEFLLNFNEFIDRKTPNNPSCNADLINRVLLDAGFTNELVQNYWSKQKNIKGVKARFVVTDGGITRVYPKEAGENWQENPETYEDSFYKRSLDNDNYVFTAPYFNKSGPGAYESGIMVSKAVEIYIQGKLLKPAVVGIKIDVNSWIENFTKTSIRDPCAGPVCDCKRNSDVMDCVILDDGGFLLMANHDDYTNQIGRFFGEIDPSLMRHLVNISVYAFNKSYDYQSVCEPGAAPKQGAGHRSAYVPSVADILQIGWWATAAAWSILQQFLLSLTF
human Cav2.2, sequence (P54289 952-1103 partner limits assumed): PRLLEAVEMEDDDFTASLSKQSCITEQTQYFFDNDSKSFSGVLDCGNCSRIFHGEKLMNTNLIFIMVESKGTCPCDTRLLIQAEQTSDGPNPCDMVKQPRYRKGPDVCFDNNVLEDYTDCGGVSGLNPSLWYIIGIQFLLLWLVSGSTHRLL
human Cav2.2, sequence (P54284 whole entry partner): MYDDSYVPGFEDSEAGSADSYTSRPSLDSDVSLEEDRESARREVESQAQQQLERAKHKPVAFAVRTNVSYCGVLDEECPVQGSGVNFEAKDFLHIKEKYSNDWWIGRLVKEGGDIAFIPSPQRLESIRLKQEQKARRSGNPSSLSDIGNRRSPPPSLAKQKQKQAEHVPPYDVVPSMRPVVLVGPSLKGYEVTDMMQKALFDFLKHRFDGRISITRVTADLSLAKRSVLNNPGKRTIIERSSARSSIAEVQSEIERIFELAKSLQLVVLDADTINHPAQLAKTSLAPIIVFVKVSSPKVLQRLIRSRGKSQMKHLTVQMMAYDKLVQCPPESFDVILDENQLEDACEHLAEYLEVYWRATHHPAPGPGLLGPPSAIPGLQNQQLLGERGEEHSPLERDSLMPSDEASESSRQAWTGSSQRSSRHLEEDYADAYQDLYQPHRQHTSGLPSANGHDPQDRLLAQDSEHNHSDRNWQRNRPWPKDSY

Structure (SMILES) | pIC50
COc1ccc2[nH]cc(C3=CCN(C(=O)CN4CCC(c5ccccc5)(c5ccccc5)C4=O)CC3)c2c1 [Example 35, 1-{2-[4-(5-methoxy-1H-indol-3-yl)-3,6-dihydropyridin-1(2H)-yl]-2-oxoethyl}-3,3-diphenylpyrrolidin-2-one] | 5.09
O=C(CN1CCC(c2ccccc2)(c2ccccc2)C1=O)N1CCN(Cc2c(Cl)cccc2Cl)CC1 [Example 36, 1-{2-[4-(2,6-dichlorobenzyl)piperazin-1-yl]-2-oxoethyl}-3,3-diphenylpyrrolidin-2-one] | 6.05
O=C(CN1CCC(c2ccccc2)(c2ccccc2)C1=O)N1CCN(Cc2cccc(C(F)(F)F)c2)CC1 [Example 37, 1-(2-oxo-2-{4-[3-(trifluoromethyl)benzyl]piperazin-1-yl}ethyl)-3,3-diphenylpyrrolidin-2-one] | 5.99
O=C(CN1CCC(c2ccccc2)(c2ccccc2)C1=O)N1CCN(Cc2ccc(F)cc2)CC1 [Example 38, 1-{2-[4-(4-fluorobenzyl)piperazin-1-yl]-2-oxoethyl}-3,3-diphenylpyrrolidin-2-one] | 5.65
O=C(CN1CCC(c2ccccc2)(c2ccccc2)C1=O)NCC1CCN(Cc2ccccc2)C1 (centres unmarked) [Example 39, N-[(1-benzylpyrrolidin-3-yl)methyl]-2-(2-oxo-3,3-diphenylpyrrolidin-1-yl)acetamide] | 5.59
CC1(NC(=O)CN2CCC(c3ccccc3)(c3ccccc3)C2=O)CCN(Cc2ccccc2)C1 (centres unmarked) [Example 40, N-(1-benzyl-3-methylpyrrolidin-3-yl)-2-(2-oxo-3,3-diphenylpyrrolidin-1-yl)acetamide] | 5.68
O=C(CN1CCC(c2ccccc2)(c2ccccc2)C1=O)N1CCC(NCc2cccc(C(F)(F)F)c2)CC1 [Example 42, 1-[2-oxo-2-(4-{[3-(trifluoromethyl)benzyl]amino}piperidin-1-yl)ethyl]-3,3-diphenylpyrrolidin-2-one] | 5.95
O=C(CN1CCC(c2ccccc2)(c2ccccc2)C1=O)N1CCN(Cc2ccc(Cl)cc2Cl)CC1 [Example 43, 1-{2-[4-(2,4-dichlorobenzyl)piperazin-1-yl]-2-oxoethyl}-3,3-diphenylpyrrolidin-2-one] | 6.28
CC(c1cccc(C(F)(F)F)c1)N1CCN(C(=O)CN2CCC(c3ccccc3)(c3ccccc3)C2=O)CC1 (centres unmarked) [Example 44, 1-[2-oxo-2-(4-{1-[3-(trifluoromethyl)phenyl]ethyl}piperazin-1-yl)ethyl]-3,3-diphenylpyrrolidin-2-one] | 6.11
O=C(CN1CCC(c2ccccc2)(c2ccccc2)C1=O)N1CCN(C(c2ccccc2)c2ccc(F)cc2)CC1 (centres unmarked) [Example 46, 1-(2-{4-[(4-fluorophenyl)(phenyl)methyl]piperazin-1-yl}-2-oxoethyl)-3,3-diphenylpyrrolidin-2-one] | 6.35
O=C(CN1CCC(c2ccccc2)(c2ccccc2)C1=O)N1CCN(C(c2ccccc2)c2ccc(Cl)cc2)CC1 (centres unmarked) [Example 47, 1-(2-{4-[(4-chlorophenyl)(phenyl)methyl]piperazin-1-yl}-2-oxoethyl)-3,3-diphenylpyrrolidin-2-one] | 6.00
O=C(CN1CCC(c2ccccc2)(c2ccccc2)C1=O)NC1CCN(C(c2ccccc2)c2ccccc2)CC1 [Example 48, N-(1-benzhydrylpiperidin-4-yl)-2-(2-oxo-3,3-diphenylpyrrolidin-1-yl)acetamide] | 6.40
C[C@@H]1CN(C(c2ccccc2)c2ccccc2)CCN1C(=O)CN1CCC(c2ccccc2)(c2ccccc2)C1=O [Example 49, 1-{2-[(2R)-4-benzhydryl-2-methylpiperazin-1-yl]-2-oxoethyl}-3,3-diphenylpyrrolidin-2-one] | 5.56
O=C(CN1CCC(c2ccccc2)(c2ccccc2)C1=O)N1CCC[C@H]2CN(C(c3ccccc3)c3ccccc3)C[C@H]21 [Example 50, 1-{2-[(4aS,7aS)-6-benzhydryloctahydro-1H-pyrrolo[3,4-b]pyridin-1-yl]-2-oxoethyl}-3,3-diphenylpyrrolidin-2-one] | 5.58
